Results taken from patent publication US6534508B2, “Methods and compositions for treating infection using optically pure (S)-lomefloxacin” (priority 1991, dated 2003).
≈ marks a conversion by molar mass, not a printed value. Like-named read-outs stand apart in the source and are kept apart here.

Legend:
[1] = test system: M. marinum ATCC 927; assay: Broth microdilution MIC, M. marinum ATCC 927; type: cell-based
[2] = test system: M. avium; assay: Broth microdilution MIC, M. avium isolates; type: cell-based; details: 11 strains, 7 days incubation, 7H9 broth
[3] = test system: M. kansasii; assay: Broth microdilution MIC, M. kansasii isolates; type: cell-based; details: 10 strains, 7 days incubation, 7H9 broth
[4] = test system: M. chelonei C315; assay: Broth microdilution MIC, M. chelonei C315; type: cell-based; details: for MIC50: as worded in conclusions, single strain
[5] = human, in vivo, cited from earlier work
[6] = test system: M. tuberculosis; assay: Broth microdilution MIC, M. tuberculosis isolates; type: cell-based; details: 12 strains, 14 days incubation, 7H9 broth
[7] = test system: M. tuberculosis; details: 79 strains susceptible to conventional drug therapy; cited from earlier work
[8] = test system: β-adrenergic; details: L-form vs D-enantiomer; cited from earlier work
[9] = 1 strain, 7 days incubation at 30° C., 7H9 broth
[10] = as worded in conclusions, single strain
[11] = 1 strain, 4 days incubation, 7H9 broth

Structure (SMILES) | Susceptibility, Range [2] | Susceptibility, MIC90 [3] | Susceptibility, Range [3] | Susceptibility, Range [6] | Susceptibility, MIC [1, 9] | MIC [1, 10] | Susceptibility, MIC50 [2] | Susceptibility, MIC90 [2] | Susceptibility, MIC50 [3] | Susceptibility, MIC [4, 11] | MIC50 [4] | Susceptibility, MIC50 [6] | also measured
CCn1cc(C(=O)O)c(=O)c2cc(F)c(N3CCNC(C)C3)c(F)c21 (racemic) [LM, 1-ethyl-6,8-difluoro-1,4-dihydro-7-(3-methyl-lpiperazinyl)-4-oxo-3-quinolinecarboxylic acid] | 4 to 16 µg/mL | 2.0 µg/mL | 1 to 2 µg/mL | 0.5 to 2 µg/mL | – | – | – | – | – | – | – | – | MIC ([1]; Mycobacterium marinum, ATCC927, 168 h, 1 strain, 7 days incubation at 30° C., 7H9 broth, read-out: Susceptibility, MIC): 4 µg/mL (≈ 11.4 µM); MIC50 ([1]; Mycobacterium marinum, ATCC927, as worded in conclusions, single strain): 4 µg/mL (≈ 11.4 µM); MIC50 ([2]; Mycobacterium avium, 168 h, read-out: Susceptibility, MIC50): 8 µg/mL (≈ 22.8 µM); MIC90 ([2]; Mycobacterium avium, 168 h, read-out: Susceptibility, MIC90): 16 µg/mL (≈ 45.5 µM); MIC50 ([3]; Mycobacterium kansasii, 168 h, read-out: Susceptibility, MIC50): 1 µg/mL (≈ 2.85 µM); MIC90 ([3]; Mycobacterium kansasii, 168 h, read-out: Susceptibility, MIC90): 2 µg/mL (≈ 5.69 µM); MIC ([4]; Mycobacteroides abscessus, C315, 96 h, 1 strain, 4 days incubation, 7H9 broth, read-out: Susceptibility, MIC): 4 µg/mL (≈ 11.4 µM); MIC50 ([4]; Mycobacteroides abscessus, C315, read-out: MIC50): 4 µg/mL (≈ 11.4 µM); average elimination half-life ([5]; po): approximately 8 hours; prolongation of the half-life [5]: up to 24 hours; MIC50 ([6]; Mycobacterium tuberculosis, 336 h, read-out: Susceptibility, MIC50): 1 µg/mL (≈ 2.85 µM); MIC90 ([6]; Mycobacterium tuberculosis, 336 h, read-out: Susceptibility, MIC90): 2 µg/mL (≈ 5.69 µM); MIC50 [7]: 0.96 µg/mL (≈ 2.73 µM); MIC90 [7]: 1.02 µg/mL (≈ 2.9 µM)
CC(C)NC[C@H](O)COc1cccc2ccccc12 [L-form of propranolol, propranolol] | – | – | – | – | – | – | – | – | – | – | – | – | potency relative to the D-enantiomer [8]: 100 times
CCn1cc(C(=O)O)c(=O)c2cc(F)c(N3CCN[C@H](C)C3)c(F)c21 [R-LM, (R)-lomefloxacin] | 4 to 32 µg/mL | 4 µg/mL | 2 to 4 µg/mL | 1 to 4 µg/mL | 4 µg/mL | 4.0 µg/mL (≈ 11.4 µM) | 16 µg/mL | 32 µg/mL | 2 µg/mL | 4 µg/mL | 4.0 µg/mL (≈ 11.4 µM) | 2 µg/mL | Susceptibility, MIC90 ([3]; listed as (R)-LM): 4.0 µg/mL; Susceptibility, MIC90 [6]: 4 µg/mL
CCn1cc(C(=O)O)c(=O)c2cc(F)c(N3CCN[C@@H](C)C3)c(F)c21 [S-LM, (S)-lomefloxacin] | 2 to 16 µg/mL | 2 µg/mL | 1 to 2 µg/mL | 0.25 to 1 µg/mL | 2 µg/mL | 2.0 µg/mL (≈ 5.69 µM) | 8 µg/mL | 16 µg/mL | 1 µg/mL | 2 µg/mL | 2.0 µg/mL (≈ 5.69 µM) | 0.5 µg/mL | Susceptibility, MIC90 ([3]; listed as (S)-LM): 2.0 µg/mL
